Source: patent US7825156B2, “Method of treating bipolar depression with a benzamide derivative” (Copharms, priority 2007, dated 2010)

Assays:
[1] = test system: bipolar I disorder relapse; details: add-on treatment of bipolar I patients, cited from earlier work
bipolar depression = test: Case reports: treatment of bipolar depression in patients with bipolar I or II disorder; details: for depressive disorders: amisulpride 150 mg/d
Method: Bipolar depressive patient is here defined as a patient with either Bipolar I Disorder, Most Recent Episode Depressed; Bipolar I Disorder, Most Recent Episode Mixed or Bipolar II Disorder (Recurrent Major Depressive Episodes With Hypomanic Episodes) (Classification 296.5×, 296.6×, and 296.89 respectively of DSM-IV).
Subject diagnosed with bipolar II disorder, recurrent major depressive episodes with hypomanic episodes). They are admitted for bipolar depression and amisulpride treatment of 200 mg/d is initiated.
Subject diagnosed with bipolar II disorder, recurrent major depressive episodes with hypomanic episodes). They are admitted for bipolar depression and amisulpride treatment of 100 mg/d is initiated.
Subject, diagnosed with bipolar disorder I, most recent episode depressed. Upon admission at the hospital a treatment with amisulpride 100 mg/g was initiated.
Subject diagnosed with bipolar I disorder, most recent episode mixed. The patient is hospitalised for bipolar depression and treatment with amisulpride 150 mg/g initiated.
Subject, diagnosed with bipolar I disorder, most recent episode depressed, for the first time. The patient has been on lithium for about 3 years. They are compliant with their treatment and lithium serum levels remains stable around 0.7-0.9 mEq/L. They are admitted for bipolar depression with lithium serum level were 0.8 mEq/L. The day after they received an amisulpride treatment of 100 mg/d.
Subject, diagnosed with bipolar disorder I, most recent episode depressed, is hospitalized for manic state. Their illness started 4 years ago. The patient suffers bipolar disorder type I. The patient has already shown two manic episodes. At entrance, they received divalproate at a dose of 1250 mg/d. […] The patient was diagnosed with major depression. Then, a treatment with amisulpride (150 mg/d) is established.
Subject diagnosed with bipolar I disorder, most recent episode depressed. Their family informed the therapist of a dramatic decrease of their professional performance since 6 months. The patient is admitted for bipolar depression and amisulpride 250 mg/d is initiated.
Subject diagnosed with bipolar II disorder, recurrent major depressive episodes with hypomanic episodes).
Subject diagnosed with bipolar I disorder, most recent episode depressed. […] A treatment with amisulpride 150 mg/d is then initiated.
Subject diagnosed with bipolar I disorder, most recent episode mixed. […] The patient however refused to follow a long course treatment because they seemed not, according to themself and their family, present severe symptoms.
Subject diagnosed with bipolar I disorder, most recent episode depressed. […] At admission, their lithium serum level was 0.7 mEq/L and their valproate serum level was 100 mg/ml.
Subject diagnosed with bipolar I disorder, most recent episode depressed.
Subject diagnosed with bipolar I disorder, most recent episode depressed. After several manic and depressive episodes the patient seems stabilised with a combination of lithium 1600 mg/d and paroxetine 40 mg/d.
Upon admission at the hospital the lithium serum level are controlled and the treatment with paroxetine is stopped. A treatment with amisulpride 100 mg/d is established.

bipolar disorder = test: Earlier treatments in the case histories (manic episodes, maintenance, earlier depressive condition); type: in vivo, patient; details: for manic episode, treatment outcome: Case 10, bipolar I, most recent episode mixed, haloperidol and levomepromazine given together
Method: At entrance, they received divalproate at a dose of 1250 mg/d. […] The patient was diagnosed with major depression. Then, a treatment with amisulpride (150 mg/d) is established.
A treatment with amisulpride 150 mg/d is then initiated.
At admission, their lithium serum level was 0.7 mEq/L and their valproate serum level was 100 mg/ml.

[2] = Serum levels of concomitant drugs in the case patients

## CCN1CCCC1CNC(=O)c1cc(S(=O)(=O)CC)c(N)cc1OC (stereo not drawn) [amisulpride, 4-amino-N-[(1-ethylpyrrolidin-2-yl)methyl]-5-(ethylsulfonyl)-2-methoxybenzamide]
[1]; period of amisulpride therapy, Clin Pract Epidemiol Ment Health 2006, 2:19
  overall relapse rate: statistically significant decrease
[1]; only manic episodes
  relapse rate, manic episodes: reached statistical significance
Bipolar depression; Case 1, bipolar II, amisulpride 200 mg/d, after 4 weeks
  depressive state: started to markedly decrease
Bipolar depression; Case 1, bipolar II, amisulpride 200 mg/d, after 6 weeks
  depressive state: disappeared completely
Bipolar depression; Case 1, after 3 years of amisulpride 100 mg/d
  manic or depressive recurrence: no manic or depressive recurrence
Bipolar depression; Case 2, bipolar II, amisulpride 100 mg/d, after 3 weeks
  depressive condition: improved
Bipolar depression; Case 2, after 4 years of amisulpride 100 mg/d
  relapse: any relapse has still not occurred
Bipolar depression; Case 3, bipolar I, most recent episode depressed, amisulpride 100 mg/g, after 3 weeks
  depressive disorder: significant improvement
Bipolar depression; Case 3, after 4 years of amisulpride 50 mg/d
  relapse: no relapse
Bipolar depression; Case 4, bipolar I, most recent episode mixed, amisulpride 150 mg/g, early course
  depressive disorder: rapidly improved
Bipolar depression; Case 4, after 4 years of amisulpride 150 mg/d
  relapse: no relapse
Bipolar depression; Case 4, amisulpride 150 mg/g, after 4 weeks
  depressive disorder: disappeared
Bipolar depression; Case 5, bipolar I, most recent episode depressed, on lithium, amisulpride 100 mg/d, after 3 weeks
  depressive state: started to vanish progressively
Bipolar depression; Case 5, on lithium, amisulpride 100 mg/d, after 6 weeks
  depressive state: disappeared completely
Bipolar depression; Case 5, after 3 years of treatment
  manic or depressive recurrence: no manic or depressive recurrence
Bipolar depression; Case 6, major depression after divalproate, early course
  depressive disorders: improved rapidly
Bipolar depression; Case 6, after 3 weeks
  depressive disorders: disappear
Bipolar depression; Case 7, bipolar I, most recent episode depressed, amisulpride 250 mg/d, after 3 weeks
  anxio-depressive element: disappears
Bipolar depression; Case 7, after 2 years of amisulpride 250 mg/d
  recurrent manic or depressive episode: still not been subject to any recurrent manic or depressive episode
Bipolar depression; Case 8, after switching from clomipramine to amisulpride 200 mg/d
  patient's chart: improved
Bipolar depression; Case 8, amisulpride, after 6 months
  relapse: no relapse
Bipolar depression; Case 9, after 3 years, amisulpride 100 mg/d
  relapse of depressive or manic episodes: no relapse of depressive or manic episodes
Bipolar depression; Case 9, amisulpride 150 mg/d after fluoxetine, after 2 weeks
  depressive condition: almost disappeared
Bipolar depression; Case 10, after 7 months of amisulpride
  relapse: any relapse has still not occurred
Bipolar depression; Case 10, amisulpride 300 mg/d, after only one month
  patient's chart: resolved the patient's chart
Bipolar depression; Case 11, after 4 years with amisulpride
  manic or depressive relapses: no manic or depressive relapses
Bipolar depression; Case 11, amisulpride 50 mg/d added, after 15 days
  depressive condition: improved
Bipolar depression; Case 12, bipolar I, most recent episode depressed, 150 mg of amisulpride, after 4 weeks
  depressive condition: recovery
Bipolar depression; Case 12, after one year of 50 mg amisulpride
  relapse: No relapse
Bipolar depression; Case 13, bipolar I, most recent episode depressed, amisulpride 100 mg/d
  clinical course: progressive improvement
Bipolar depression; Case 13, after two years of 100 mg/d
  relapse: No relapse
Bipolar depression; Case 13, amisulpride 100 mg/d, after 6 weeks
  catatonic condition: disappearance
Bipolar depression; Case 14, after 3 years of amisulpride 200 mg/d
  patient's state: still remains stable
Bipolar depression; Case 14, paroxetine stopped, lithium controlled, amisulpride 100 mg/d, after 3 weeks
  clinical improvement: considerable improvement
Bipolar depression; amisulpride about 50 mg/day to about 300 mg/day (about 20 to about 800 mg/day)
  effect on bipolar depression: clinically beneficial effect

## CCOc1ccccc1OCC1CNCCO1 (stereo not drawn) [viloxazine]
Bipolar disorder; Case 12, viloxazine during adolescence
  reactive depressive condition, response: responded only moderately

## COc1ccc2c(c1)N(C[C@H](C)CN(C)C)c1ccccc1S2 [levomepromazine]
Bipolar disorder
  manic episode, treatment outcome: treated successfully

## Fc1ccc([C@@H]2CCNC[C@H]2COc2ccc3c(c2)OCO3)cc1 [paroxetine]
Bipolar disorder; Case 14, bipolar I, combination of lithium 1600 mg/d and paroxetine 40 mg/d
  patient's state: stabilised

## CNCCC(Oc1ccc(C(F)(F)F)cc1)c1ccccc1 (stereo not drawn) [fluoxetine]
Bipolar depression; Case 9, fluoxetine 20 mg/d, after 3 weeks
  depressive condition: only a small improvement

## CCCC(CCC)C(=O)O.CCCC(CCC)C(=O)[O-].[Na+] [divalproate]
Bipolar disorder; Case 6, bipolar I, manic state, divalproate 1250 mg/d, after one month
  manic symptoms: disappeared
Bipolar depression; Case 11, combination of lithium and divalproate 750 mg/d, lithium increased to obtain 0.9 mEq/L
  depressive condition: continued

## O=C(CCCN1CCC(O)(c2ccc(Cl)cc2)CC1)c1ccc(F)cc1 [haloperidol]
Bipolar disorder
  manic episode, treatment outcome: treated successfully

## [Li] [lithium, lithium carbonate (Li2CO3)]
[2]; Case 5, at admission for bipolar depression
  lithium serum level: 0.8 mEq/L
[2]; Case 5, on lithium for about 3 years, stable level
  lithium serum levels: 0.7-0.9 mEq/L
[2]; Case 11, lithium 1200 mg/d and divalproate 750 mg/d, at admission
  lithium serum level: 0.7 mEq/L

## NC(=O)N1c2ccccc2C=Cc2ccccc21 [carbamazepine]
[2]; Case 9, carbamazepine 800 mg/d, at admission
  serum level of carbamazepine: 8 µg/mL
Bipolar disorder; Case 9, carbamazepine 800 mg/d for 5 years
  therapeutic outcome: treated successfully

## CN(C)CCCN1c2ccccc2CCc2ccc(Cl)cc21 [clomipramine]
Bipolar depression; Case 8, bipolar II, clomipramine 100 mg/d, according to their family
  patient's condition (anxiety, agitation, sleep disorders): deteriorated
